Measured values as given in patent publication US20250134890A1, “ANTIMALARIAL HEXAHYDROPYRIMIDINE ANALOGUES” (UCB BIOPHARMA SRL, priority 2022, published 2025).
Structures can show the parent of a compound that is named as a salt. Where two headings read alike, the source gives them in different places.

Tested on: Plasmodium falciparum: 3D7 strain
Assay: P. falciparum 3D7 asexual blood stage assay (SYBR green readout)
Type: cell-based
Conditions: Plasmodium falciparum, P. falciparum 3D7 in human erythrocytes, 72 h incubation, SYBR green fluorescence
Description: The compounds of the present invention are potent inhibitors of the growth and propagation of the Plasmodium falciparum parasite in human blood.
The assay used to measure the effect of test compounds on a bloodstream stage of Plasmodium falciparum: 3D7 strain employs SYBR green as the readout. This is a dye that binds to double stranded deoxyribonucleic acid (DNA) with a resulting increase in fluorescence, allowing detection of P. falciparum DNA in infected erythrocytes, and thereby providing a measure of parasite growth and propagation.
Erythrocytes (A+blood) were prepared for both parasite culture and assay by washing 4 times with incomplete media (15.9 g RPMI 1640 (25 mM HEPES, L-glutamine), 1 g NaHCO3, 2 g glucose, 400 μL gentacin (500 mg/mL), 2 mL hypoxanthine solution (13.6 g/L in 0.1M NaOH pH 7.3) in 1 litre of media). The cells were centrifuged at 1800 g for 5 minutes, before decanting the supernatant and re-suspending in fresh incomplete media. On the final wash, the cells were re-suspended in complete media (incomplete media with 5 g/L AlbumaxII), and centrifuged at 1800 g for 3 minutes. This cell sediment was treated as 100% haematocrit.
P. falciparum 3D7 was cultured in erythrocytes at 5% haematocrit in complete media at 37° C. (1% O2, 3% CO2, balance N2). Cultures were split on a weekly basis to achieve a 1% parasitaemia in erythrocites at 5% haematocrit in fresh media. Culture media is replaced by fresh media every other day (2 times during the week).
On day 1, test compounds were added to assay plates using Echo dispensing technology ([…] and 20 points titration). 50 nL of each compound dilution was added to 50 μL of culture (5% haematocrit, 0.5% parasitaemia) and incubated for 72 h at 37° C. (1% O2, 3% CO2, balance N2). Final concentrations of test compounds ranged from 50,000 nM to 15 nM, in […].
On day 4, 10 μL SYBR green (Invitrogen S7563 supplied as 10,000×concentrate in DMSO) pre-diluted to 3×concentrate with Lysis buffer (20 mM Tris pH 7.9, 5% EDTA, 0.16% w/v, 1.6% TX100 v/v) was added to the cultures and incubated in the dark, overnight, at room temperature.
On day 5, fluorescent signal was measured using a BioTek plate reader (excitation 485 nm, emission 528 nm). All data were processed using IDBS ActivityBase. Raw data were converted into percent inhibition through linear regression by setting the high inhibition control (mefloquine) as 100% and the no inhibition control (DMSO) as 0%. Quality control criteria for passing plates were as follows: Z′>0.5, S:B>3, % CV(no inhibition control)<15. The formula used to calculate Z′ is: […]
All EC50 curve fitting was undertaken using the following bi-phasic two site dose response using XLfit model 300 (IDBS):
where A=100 minus the top of the upper curve 1 and the bottom of lower curve; B=Hill slope; log(C)=IC50 concentration at lower site; log(D)=IC50 concentration at upper site; x=inhibitor concentration; and y=% inhibition.

## C[C@@H]1C[C@H](N2C(=N)N[C@](C)(c3cccc(-c4cccc(Cl)c4)c3Cl)CC2=O)CC[C@@H]1O (relative stereo) [Example 7, (6S)-6-[2-Chloro-3-(3-chloro-phenyl)phenyl]-3-[(1R*,3R*,4S*)-4-hydroxy-3-methylcyclohexyl]-2-imino-6-methylhexahydro-pyrimidin-4-one hydrochloride]
3D7, Erythrocyte, 72 h
  IC50: 720 nM

## C[C@H]1C[C@@H](N2C(=N)N[C@](C)(c3cccc(-c4cccc(Cl)c4)c3Cl)CC2=O)CC[C@H]1O (relative stereo) [Example 8, (6S)-6-[2-Chloro-3-(3-chloro-phenyl)phenyl]-3-[(1S*,3S*,4R*)-4-hydroxy-3-methylcyclohexyl]-2-imino-6-methylhexahydro-pyrimidin-4-one hydrochloride]
3D7, Erythrocyte, 72 h
  IC50: 247 nM

## CO[C@@H]1C[C@H](N2C(=N)N[C@](C)(c3cccc(-c4ccc(S(C)(=O)=O)cc4F)c3Cl)CC2=O)CCC1(F)F (relative stereo) [Example 9, (6S)-6-{2-Chloro-3-[2-fluoro-4-(methylsulfonyl)phenyl]phenyl}-3-[(1R*,3R*)-4,4-difluoro-3-methoxycyclohexyl]-2-imino-6-methylhexahydropyrimidin-4-one hydrochloride]
3D7, Erythrocyte, 72 h
  IC50: 84 nM

## CO[C@H]1C[C@@H](N2C(=N)N[C@](C)(c3cccc(-c4ccc(S(C)(=O)=O)cc4F)c3Cl)CC2=O)CCC1(F)F (relative stereo) [Example 10, (6S)-6-{2-Chloro-3-[2-fluoro-4-(methylsulfonyl)phenyl]phenyl}-3-[(1S*,3S*)-4,4-difluoro-3-methoxy-cyclohexyl]-2-imino-6-methyl-hexahydropyrimidin-4-one hydrochloride]
3D7, Erythrocyte, 72 h
  IC50: 6 nM

## CO[C@@H]1C[C@H](N2C(=N)N[C@](C)(c3cccc(-c4ccc(N=S(C)(C)=O)cc4F)c3Cl)CC2=O)CCC1(F)F (relative stereo) [Example 11, (6S)-6-[2-Chloro-3-(4-{[(dimethyl)-(oxo)-λ^6-sulfanylidene]amino}-2-fluorophenyl)phenyl]-3-[(1R*,3R*)-4,4-difluoro-3-methoxycyclohexyl]-2-imino-6-methylhexahydropyrimidin-4-one hydrochloride]
3D7, Erythrocyte, 72 h
  IC50: 367 nM

## CO[C@H]1C[C@@H](N2C(=N)N[C@](C)(c3cccc(-c4ccc(N=S(C)(C)=O)cc4F)c3Cl)CC2=O)CCC1(F)F (relative stereo) [Example 12, (6S)-6-[2-Chloro-3-(4-{[(dimethyl)-(oxo)-λ^6-sulfanylidene]amino}-2-fluorophenyl)phenyl]-3-[(1S*,3S*)-4,4-difluoro-3-methoxy-cyclohexyl]-2-imino-6-methyl-hexahydropyrimidin-4-one hydrochloride]
3D7, Erythrocyte, 72 h
  IC50: 359 nM

## C[C@@]1(c2cccc(-c3cccc(Cl)c3)c2Cl)CC(=O)N([C@H]2CCC(F)(F)[C@@H](O)C2)C(=N)N1 (relative stereo) [Example 21, (S)-6-[2,3′-Dichloro(1,1′-biphenyl)-3-yl]-3-[(1S*,3S*)-4,4-difluoro-3-hydroxycyclohexyl]-2-imino-6-methyltetrahydropyrimidin-4(1H)-one trifluoroacetic acid salt]
3D7, Erythrocyte, 72 h
  IC50: 726 nM

## C[C@@]1(c2cccc(-c3cccc(Cl)c3)c2Cl)CC(=O)N([C@@H]2CCC(F)(F)[C@H](O)C2)C(=N)N1 (relative stereo) [Example 22, (S)-6-[2,3′-Dichloro(1,1′-biphenyl)-3-yl]-3-[(1R*,3R*)-4,4-difluoro-3-hydroxycyclohexyl]-2-imino-6-methyltetrahydropyrimidin-4(1H)-one trifluoroacetic acid salt]
3D7, Erythrocyte, 72 h
  IC50: 154 nM

## C[C@@]1(c2cccc(-c3cncc(Cl)c3)c2Cl)CC(=O)N([C@@H]2CCC(F)(F)[C@H](O)C2)C(=N)N1 (relative stereo) [Example 23, (6S)-6-[2-Chloro-3-(5-chloro-pyridin-3-yl)phenyl]-3-[(1R*,3R*)-4,4-difluoro-3-hydroxycyclohexyl]-2-imino-6-methylhexahydro-pyrimidin-4-one hydrochloride]
3D7, Erythrocyte, 72 h
  IC50: 158 nM

## C[C@@]1(c2cccc(-c3cccc(Cl)c3)c2Cl)CC(=O)N([C@@H]2CCC(F)(F)[C@@H](O)C2)C(=N)N1 (relative stereo) [Example 24, (6S)-6-[2-Chloro-3-(3-chloro-phenyl)phenyl]-3-[(1R*,3S*)-4,4-difluoro-3-hydroxycyclohexyl]-2-imino-6-methylhexahydro-pyrimidin-4-one trifluoroacetic acid salt]
3D7, Erythrocyte, 72 h
  IC50: 112 nM

## C[C@H]1C[C@@H](N2C(=N)N[C@](C)(c3cccc(-c4cccc([C@@H](O)C(F)(F)F)c4)c3Cl)CC2=O)CCO1 (relative stereo) [Example 27, (6S)-6-(2-Chloro-3-{3-[(1R*)-2,2,2-trifluoro-1-hydroxyethyl]-phenyl}phenyl)-2-imino-6-methyl-3-[(2S,4S)-2-methyltetrahydro-pyran-4-yl|hexahydropyrimidin-4-one hydrochloride]
Erythrocyte, read-out: IC50
  IC50: 44 nM

## C[C@@H]1C[C@H](N2C(=N)N[C@](C)(c3cccc(-c4ccc(F)cc4F)c3Cl)CC2=O)CCS1(=O)=O (relative stereo) [Example 63, (6S)-6-[2-Chloro-3-(2,4-difluoro-phenyl)phenyl]-2-imino-6-methyl-3-[(2R*,4R*)-2-methyl-1,1-dioxo-thian-4-yl]hexahydropyrimidin-4-one hydrochloride]
3D7, Erythrocyte, 72 h
  IC50: 74 nM

## C[C@H]1C[C@@H](N2C(=N)N[C@](C)(c3cccc(-c4ccc(F)cc4F)c3Cl)CC2=O)CCS1(=O)=O (relative stereo) [Example 64, (6S)-6-[2-Chloro-3-(2,4-difluoro-phenyl)phenyl]-2-imino-6-methyl-3-[(2S*,4S*)-2-methyl-1,1-dioxo-thian-4-yl]hexahydropyrimidin-4-one hydrochloride]
3D7, Erythrocyte, 72 h
  IC50: 207 nM

## C[C@H]1C[C@H](N2C(=N)N[C@](C)(c3cccc(-c4ccc(F)cc4F)c3Cl)CC2=O)CCS1(=O)=O (relative stereo) [Example 65, (6S)-6-[2-Chloro-3-(2,4-difluoro-phenyl)phenyl]-2-imino-6-methyl-3-[(2S*,4R*)-2-methyl-1,1-dioxo-thian-4-yl]hexahydropyrimidin-4-one hydrochloride]
3D7, Erythrocyte, 72 h
  IC50: 1300 nM

## C[C@@H]1C[C@@H](N2C(=N)N[C@](C)(c3cccc(-c4ccc(F)cc4F)c3Cl)CC2=O)CCS1(=O)=O (relative stereo) [Example 66, (6S)-6-[2-Chloro-3-(2,4-difluoro-phenyl)phenyl]-2-imino-6-methyl-3-[(2R*,4S*)-2-methyl-1,1-dioxo-thian-4-yl]hexahydropyrimidin-4-one hydrochloride]
3D7, Erythrocyte, 72 h
  IC50: 272 nM

## C[C@H]1C[C@@H](N2C(=N)N[C@](C)(c3cccc(-c4ccc(C5CC5)nc4)c3Cl)CC2=O)CCS1(=O)=O (relative stereo) [Example 67, (6S)-6-[2-Chloro-3-(6-cyclopropyl-pyridin-3-yl)phenyl]-2-imino-6-methyl-3-[(2S*,4S*)-2-methyl-1,1-dioxothian-4-yl]hexahydro-pyrimidin-4-one hydrochloride]
3D7, Erythrocyte, 72 h
  IC50: 88 nM

## C[C@@H]1C[C@@H](N2C(=N)N[C@](C)(c3cccc(-c4ccc(C5CC5)nc4)c3Cl)CC2=O)CCS1(=O)=O (relative stereo) [Example 68, (6S)-6-[2-Chloro-3-(6-cyclopropyl-pyridin-3-yl)phenyl]-2-imino-6-methyl-3-[(2R*,4S*)-2-methyl-1,1-dioxothian-4-yl]hexahydro-pyrimidin-4-one hydrochloride]
3D7, Erythrocyte, 72 h
  IC50: 1140 nM

## C[C@H]1C[C@H](N2C(=N)N[C@](C)(c3cccc(-c4ccc(C5CC5)nc4)c3Cl)CC2=O)CCS1(=O)=O (relative stereo) [Example 69, (6S)-6-[2-Chloro-3-(6-cyclopropyl-pyridin-3-yl)phenyl]-2-imino-6-methyl-3-[(2S*,4R*)-2-methyl-1,1-dioxothian-4-yl]hexahydro-pyrimidin-4-one hydrochloride]
3D7, Erythrocyte, 72 h
  IC50: 260 nM

## C[C@@H]1C[C@H](N2C(=N)N[C@](C)(c3cccc(-c4ccc(OC(F)F)nc4)c3Cl)CC2=O)CCS1(=O)=O (relative stereo) [Example 70, (6S)-6-{2-Chloro-3-[6-(difluoro-methoxy)pyridin-3-yl]phenyl}-2-imino-6-methyl-3-[(2R*,4R*)-2-methyl-1,1-dioxothian-4-yl]-hexahydropyrimidin-4-one hydrochloride]
3D7, Erythrocyte, 72 h
  IC50: 85 nM
